Legend:
Assay in all cases: Test C preemergence
Assay type in all cases: in vivo
[1] = test system: oilseed rape (Brassica napus); conditions: for Plant response rating, Oilseed Rape: scale 0 to 100, 0 no effect, 100 complete control
Procedure, shortened: (§1)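 After treatment with surfactant-containing formulations, either preemergence to seeds in loam-sand soil or postemergence to potted seedlings at 2–18 cm, plants were kept 13–15 d in a greenhouse. Observers then compared them with controls and assigned ratings, 0 signifying no effect and 100 complete control.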

[2] = test system: waterhemp (common waterhemp, Amaranthus rudis); conditions: for Plant response rating, Waterhemp: scale 0 to 100, 0 no effect, 100 complete control
Procedure, shortened: as §1

[3] = test system: johnsongrass (Sorghum halepense); conditions: for Plant response rating, Johnsongrass: scale 0 to 100, 0 no effect, 100 complete control
Procedure, shortened: as §1

[4] = test system: Galium (catchweed bedstraw, Galium aparine); conditions: for Plant response rating, Galium: scale 0 to 100, 0 no effect, 100 complete control
Procedure, shortened: as §1

[5] = test system: blackgrass (Alopecurus myosuroides); conditions: for Plant response rating, Blackgrass: scale 0 to 100, 0 no effect, 100 complete control
Procedure, shortened: as §1

[6] = test system: barnyardgrass (Echinochloa crus-galli); conditions: for Plant response rating, Barnyardgrass: scale 0 to 100, 0 no effect, 100 complete control
Procedure, shortened: as §1

[7] = test system: ryegrass, Italian (Italian ryegrass, Lolium multiflorum); conditions: for Plant response rating, Ryegrass, Italian: scale 0 to 100, 0 no effect, 100 complete control
Procedure, shortened: as §1

[8] = test system: crabgrass, large (large crabgrass, Digitaria sanguinalis); conditions: for Plant response rating, Crabgrass, Large: scale 0 to 100, 0 no effect, 100 complete control
Procedure, shortened: as §1

[9] = test system: ragweed (common ragweed, Ambrosia elatior); conditions: for Plant response rating, Ragweed: scale 0 to 100, 0 no effect, 100 complete control
Procedure, shortened: as §1

[10] = test system: wheat (winter wheat, Triticum aestivum); conditions: for Plant response rating, Wheat: scale 0 to 100, 0 no effect, 100 complete control
Procedure, shortened: as §1

soybean (Glycine max) = conditions: for Plant response rating, Soybean: scale 0 to 100, 0 no effect, 100 complete control
Procedure, shortened: as §1

[11] = test system: nutsedge, yellow (yellow nutsedge, Cyperus esculentus); conditions: for Plant response rating, Nutsedge, Yellow: scale 0 to 100, 0 no effect, 100 complete control
Procedure, shortened: as §1

[12] = test system: morningglory (Ipomoea coccinea); conditions: for Plant response rating, Morningglory: scale 0 to 100, 0 no effect, 100 complete control
Procedure, shortened: as §1

[13] = test system: velvetleaf (Abutilon theophrasti); conditions: for Plant response rating, Velvetleaf: scale 0 to 100, 0 no effect, 100 complete control
Procedure, shortened: as §1

corn (Zea mays) = conditions: for Plant response rating, Corn: scale 0 to 100, 0 no effect, 100 complete control
Procedure, shortened: as §1

[14] = test system: foxtail, giant (giant foxtail, Setaria faberii); conditions: for Plant response rating, Foxtail, Giant: scale 0 to 100, 0 no effect, 100 complete control
Procedure, shortened: as §1

[15] = test system: lambsquarters (Chenopodium album); conditions: for Plant response rating, Lambsquarters: scale 0 to 100, 0 no effect, 100 complete control
Procedure, shortened: as §1

[16] = 31 g ai/ha, 0 is no effect, 100 is complete control

With `O=C1NCC(c2ccc3c(c2)OC(F)(F)O3)C1C(=O)Nc1cccc(F)c1F` (centres unmarked) [Compound 635] the “Plant response rating (scale of 0 to 100), Oilseed Rape” value [1, 16] was 25, the “Plant response rating, Oilseed Rape” value ([1]; 62 g ai/ha) was 50 and the “Plant response rating, Oilseed Rape” value ([1]; 125 g ai/ha) was 90. For the same molecule, the “Plant response rating, Oilseed Rape” value ([1]; 250 g ai/ha) was 90, the “Plant response rating (scale of 0 to 100), Waterhemp” value [2, 16] was 75 and the “Plant response rating, Waterhemp” value ([2]; 62 g ai/ha) was 80. For the same molecule, the “Plant response rating, Waterhemp” value ([2]; 125 g ai/ha) was 85, the “Plant response rating, Waterhemp” value ([2]; 250 g ai/ha) was 85 and the “Plant response rating (scale of 0 to 100), Johnsongrass” value [3, 16] was 25. For the same molecule, the “Plant response rating, Johnsongrass” value ([3]; 62 g ai/ha) was 75, the “Plant response rating, Johnsongrass” value ([3]; 125 g ai/ha) was 65 and the “Plant response rating, Johnsongrass” value ([3]; 250 g ai/ha) was 85. For the same molecule, the “Plant response rating (scale of 0 to 100), Galium” value [4, 16] was 5, the “Plant response rating, Galium” value ([4]; 62 g ai/ha) was 5 and the “Plant response rating, Galium” value ([4]; 125 g ai/ha) was 80. The “Plant response rating, Galium” value ([4]; 250 g ai/ha) was 80, the “Plant response rating (scale of 0 to 100), Blackgrass” value [5, 16] was 30 and the “Plant response rating, Blackgrass” value ([5]; 62 g ai/ha) was 60. The “Plant response rating, Blackgrass” value ([5]; 125 g ai/ha) was 70, the “Plant response rating, Blackgrass” value ([5]; 250 g ai/ha) was 90 and the “Plant response rating (scale of 0 to 100), Barnyardgrass” value [6, 16] was 85. For the same molecule, the “Plant response rating, Barnyardgrass” value ([6]; 62 g ai/ha) was 90, the “Plant response rating, Barnyardgrass” value ([6]; 125 g ai/ha) was 95 and the “Plant response rating, Barnyardgrass” value ([6]; 250 g ai/ha) was 95. The “Plant response rating (scale of 0 to 100), Ryegrass, Italian” value [7, 16] was 0, the “Plant response rating, Ryegrass, Italian” value ([7]; 62 g ai/ha) was 5 and the “Plant response rating, Ryegrass, Italian” value ([7]; 125 g ai/ha) was 20. For the same molecule, the “Plant response rating, Ryegrass, Italian” value ([7]; 250 g ai/ha) was 40, the “Plant response rating (scale of 0 to 100), Crabgrass, Large” value [8, 16] was 90 and the “Plant response rating, Crabgrass, Large” value ([8]; 62 g ai/ha) was 95. For the same molecule, the “Plant response rating, Crabgrass, Large” value ([8]; 125 g ai/ha) was 95, the “Plant response rating, Crabgrass, Large” value ([8]; 250 g ai/ha) was 98 and the “Plant response rating (scale of 0 to 100), Ragweed” value [9, 16] was 40. For the same molecule, the “Plant response rating, Ragweed” value ([9]; 62 g ai/ha) was 70, the “Plant response rating, Ragweed” value ([9]; 125 g ai/ha) was 80 and the “Plant response rating, Ragweed” value ([9]; 250 g ai/ha) was 80. For the same molecule, the “Plant response rating (scale of 0 to 100), Wheat” value [10, 16] was 0, the “Plant response rating, Wheat” value ([10]; 62 g ai/ha) was 0 and the “Plant response rating, Wheat” value ([10]; 125 g ai/ha) was 10. The “Plant response rating, Wheat” value ([10]; 250 g ai/ha) was 65, the “Plant response rating (scale of 0 to 100), Soybean” value (soybean (Glycine max); [16]) was 20 and the “Plant response rating, Soybean” value (soybean (Glycine max); 62 g ai/ha) was 85. For the same molecule, the “Plant response rating, Soybean” value (soybean (Glycine max); 125 g ai/ha) was 5, the “Plant response rating, Soybean” value (soybean (Glycine max); 250 g ai/ha) was 60 and the “Plant response rating (scale of 0 to 100), Nutsedge, Yellow” value [11, 16] was 0. For the same molecule, the “Plant response rating, Nutsedge, Yellow” value ([11]; 62 g ai/ha) was 0, the “Plant response rating, Nutsedge, Yellow” value ([11]; 125 g ai/ha) was 0 and the “Plant response rating, Nutsedge, Yellow” value ([11]; 250 g ai/ha) was 25. For the same molecule, the “Plant response rating (scale of 0 to 100), Morningglory” value [12, 16] was 0, the “Plant response rating, Morningglory” value ([12]; 62 g ai/ha) was 25 and the “Plant response rating, Morningglory” value ([12]; 125 g ai/ha) was 30. For the same molecule, the “Plant response rating, Morningglory” value ([12]; 250 g ai/ha) was 50, the “Plant response rating (scale of 0 to 100), Velvetleaf” value [13, 16] was 0 and the “Plant response rating, Velvetleaf” value ([13]; 62 g ai/ha) was 10. The “Plant response rating, Velvetleaf” value ([13]; 125 g ai/ha) was 15, the “Plant response rating, Velvetleaf” value ([13]; 250 g ai/ha) was 40 and the “Plant response rating (scale of 0 to 100), Corn” value (corn (Zea mays); [16]) was 0. For the same molecule, the “Plant response rating, Corn” value (corn (Zea mays); 62 g ai/ha) was 70, the “Plant response rating, Corn” value (corn (Zea mays); 125 g ai/ha) was 75 and the “Plant response rating, Corn” value (corn (Zea mays); 250 g ai/ha) was 85. For the same molecule, the “Plant response rating (scale of 0 to 100), Foxtail, Giant” value [14, 16] was 85, the “Plant response rating, Foxtail, Giant” value ([14]; 62 g ai/ha) was 90 and the “Plant response rating, Foxtail, Giant” value ([14]; 125 g ai/ha) was 95. The “Plant response rating, Foxtail, Giant” value ([14]; 250 g ai/ha) was 95, the “Plant response rating (scale of 0 to 100), Lambsquarters” value [15, 16] was 40 and the “Plant response rating, Lambsquarters” value ([15]; 62 g ai/ha) was 40. The “Plant response rating, Lambsquarters” value ([15]; 125 g ai/ha) was 80 and the “Plant response rating, Lambsquarters” value ([15]; 250 g ai/ha) was 85.

Reference: US12077503B2, “Substituted cyclic amides and their use as herbicides” (FMC CORPORATION, priority 2015, dated 2024)
